Assay results as given in US20240158446A1, “CYCLIC COMPOUND HAVING SELECTIVE INHIBITORY ACTION ON KRAS OVER HRAS AND NRAS” (CHUGAI SEIYAKU KABUSHIKI KAISHA, priority 2021, published 2024).
Like-named read-outs stand apart in the source and are kept apart here. *1 amine or outer side, *2 acyl side, *3 side chain or, on linkers, in order; H or OH if unused. Where a SMILES comes first, the peptide text is derived from it. Bridges are numbered along the chain shown (N, C = ends). [ ]: non-standard residue; d: D form. The star is where a group is joined. hPhe(3,5-F2-4-CF3) = N[C@@H](CCc1cc(F)c(C(F)(F)F)c(F)c1)C(=O)O; hPhe(3-Cl-4-CF3) = N[C@@H](CCc1ccc(C(F)(F)F)c(Cl)c1)C(=O)O; X23 = C=CCCN([C@@H](Cc1ccc(C(F)(F)F)cc1)C(=O)[*:2])[*:1]; NPrPhe(4-CF3) = CCCN[C@@H](Cc1ccc(C(F)(F)F)cc1)C(=O)O; X30 = C=CCCN([C@@H](Cc1ccc(C)cc1)C(=O)[*:2])[*:1]; NMeGly(cPent) = CN[C@H](C(=O)O)C1CCCC1; αMeCha = C[C@](N)(CC1CCCCC1)C(=O)O; Gly(cBu) = N[C@H](C(=O)O)C1CCC1; NMeD = CN[C@@H](CC(=O)O)C(=O)O; NMeL = CN[C@@H](CC(C)C)C(=O)O; Morpholide = C1CN(*)CCO1; NMeA = CN[C@@H](C)C(=O)O; Ac5c = NC1(C(=O)O)CCCC1; Aze = O=C(O)[C@@H]1CCN1; Sar = CNCC(=O)O

Assays:
[1] = molecular target: GDP-bound KRAS wild-type protein (Homo sapiens, UniProt P01116); test: Binding to KRAS by surface plasmon resonance (SPR), Single Cycle Kinetics; conditions: GDP-bound KRAS wild-type protein, read-out: KRAS KD
[2] = molecular target: GDP-bound NRAS wild-type protein (Homo sapiens, UniProt P01111); test: Binding to NRAS by surface plasmon resonance (SPR), Single Cycle Kinetics; conditions: for NRAS/KRAS (ratio of KD value for NRAS to KD value for KRAS) / NRAS/KRAS (ratio of KD value with respect to NRAS to KD value with respect to KRAS): SPR, GDP-bound NRAS wild-type protein vs GDP-bound KRAS wild-type protein
[3] = molecular target: GDP-bound HRAS wild-type protein (Homo sapiens, UniProt P01112); test: Binding to HRAS by surface plasmon resonance (SPR), Single Cycle Kinetics; conditions: for HRAS/KRAS (ratio of KD value for HRAS to KD value for KRAS) / HRAS/KRAS (ratio of KD value with respect to HRAS to KD value with respect to KRAS): SPR, GDP-bound HRAS wild-type protein vs GDP-bound KRAS wild-type protein
[4] = SPR Single Cycle Kinetics, 1:1 binding model

Sequence of GDP-bound NRAS wild-type protein (P01111 whole entry): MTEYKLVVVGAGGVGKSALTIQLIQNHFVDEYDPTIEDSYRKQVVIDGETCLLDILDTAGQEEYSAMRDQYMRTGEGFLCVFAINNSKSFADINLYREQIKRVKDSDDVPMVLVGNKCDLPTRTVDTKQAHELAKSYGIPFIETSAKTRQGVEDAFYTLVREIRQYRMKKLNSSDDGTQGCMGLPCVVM
Sequence of GDP-bound HRAS wild-type protein (P01112 whole entry): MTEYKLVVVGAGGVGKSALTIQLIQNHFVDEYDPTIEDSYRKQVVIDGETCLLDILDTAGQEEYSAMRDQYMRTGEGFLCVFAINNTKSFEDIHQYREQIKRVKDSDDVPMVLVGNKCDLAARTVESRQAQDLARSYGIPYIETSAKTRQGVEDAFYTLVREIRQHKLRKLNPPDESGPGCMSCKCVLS
Sequence of GDP-bound KRAS wild-type protein (P01116 whole entry): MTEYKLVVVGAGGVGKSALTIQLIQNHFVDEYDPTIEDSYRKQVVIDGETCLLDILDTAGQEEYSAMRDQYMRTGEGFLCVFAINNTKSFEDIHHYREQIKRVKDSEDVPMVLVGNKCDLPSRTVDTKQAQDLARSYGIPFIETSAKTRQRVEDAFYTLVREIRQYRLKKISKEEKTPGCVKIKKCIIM

SMILES	Kd [1, 4]	NRAS/KRAS (ratio of KD value for NRAS to KD value for KRAS) [2]	HRAS/KRAS (ratio of KD value for HRAS to KD value for KRAS) [3]	other results
CC[C@H](C)[C@@H]1NC(=O)[C@H](CC2CC2)N(C)C(=O)C[C@@H](C(=O)N2CCCC2)N(C)C(=O)[C@H](C2CCCC2)N(C)C(=O)C2(CCC2)NC(=O)[C@@H]2CC(F)(F)CN2C(=O)[C@H](CCc2cc(F)c(C(F)(F)F)c(F)c2)NC(=O)CN(C)C(=O)[C@H](Cc2ccc(C(F)(F)F)cc2)N2CC/C=C\C[C@@H](C2=O)N(C)C(=O)CN(C)C1=O [PP1512]	–	–	–	Kd ([1]; SPR, Single Cycle Kinetics, 1:1 binding model): 0.084 nM; NRAS/KRAS (ratio of KD value for NRAS to KD value for KRAS) ([2]; KD ratio class): AA (a compound having 20 or more is denoted as AA); HRAS/KRAS (ratio of KD value for HRAS to KD value for KRAS) ([3]; KD ratio class): A (a compound having 10 or more and less than 20 is denoted as A)
C=CCCN1C(=O)[C@@H]2CCN2C(=O)[C@H](C)N(C)C(=O)[C@H]([C@@H](C)CC)NC(=O)[C@H](CC(C)C)N(C)C(=O)C[C@@H](C(=O)N2CCOCC2)N(C)C(=O)[C@H](C2CCCC2)N(C)C(=O)C2(CCCC2)NC(=O)[C@@H]2CCCN2C(=O)[C@H](CCc2ccc(C(F)(F)F)c(Cl)c2)NC(=O)CN(C)C(=O)[C@@H]1Cc1ccc(C)cc1 [PP0089] ([NMeL]I[NMeA][Aze][X30][Sar][hPhe(3-Cl-4-CF3)]P[Ac5c][NMeGly(cPent)][NMeD]-Morpholide; lactam N-11)	0.17 nM	C (A compound having a KD ratio of 0.1 or more and less than 3 is denoted as C)	B (a compound having 3 or more and less than 10 is denoted as B)	–
CCO[C@@H]1C[C@H]2C(=O)NC3(CC=CC3)C(=O)N(C)[C@@H](C3CCCC3)C(=O)N(C)[C@H](C(=O)N3CCOCC3)CC(=O)N(C)[C@@H](CC(C)C)C(=O)N[C@@H]([C@@H](C)CC)C(=O)N(C)CC(=O)N(C)[C@H]3CCCCCN(C3=O)[C@@H](Cc3ccc(C(F)(F)F)cc3)C(=O)N(C)CC(=O)N[C@@H](CCc3cc(F)c(C(F)(F)F)c(F)c3)C(=O)N2C1 [PP0727]	1.3 nM	–	–	NRAS/KRAS (ratio of KD value with respect to NRAS to KD value with respect to KRAS) [2]: B (a compound having 3 or more and less than 10 is denoted as B); HRAS/KRAS (ratio of KD value with respect to HRAS to KD value with respect to KRAS) [3]: B (a compound having 3 or more and less than 10 is denoted as B)
CCCN1C(=O)CN(C)C(=O)CN(C)C(=O)[C@H]([C@@H](C)CC)NC(=O)[C@H](CC(C)C)N(C)C(=O)C[C@@H](C(=O)N(C)C)N(C)C(=O)[C@H](C2CCCC2)N(C)C(=O)[C@](C)(CC2CCCCC2)NC(=O)[C@@H]2CCCN2C(=O)[C@H](CCc2cc(F)c(C(F)(F)F)c(F)c2)NC(=O)CN(C)C(=O)[C@@H]1Cc1ccc(C(F)(F)F)cc1 [PP0739] ([NMeL]I[Sar][Sar][NPrPhe(4-CF3)][Sar][hPhe(3,5-F2-4-CF3)]P[αMeCha][NMeGly(cPent)][NMeD]-NMe2; lactam N-11)	3.7 nM	–	–	NRAS/KRAS (ratio of KD value with respect to NRAS to KD value with respect to KRAS) [2]: B (a compound having 3 or more and less than 10 is denoted as B); HRAS/KRAS (ratio of KD value with respect to HRAS to KD value with respect to KRAS) [3]: C (A compound having a KD ratio of 0.1 or more and less than 3 is denoted as C)
CCO[C@@H]1C[C@H]2C(=O)NC3(CC(C)(C)C3)C(=O)N(C)[C@@H](C(CC)CC)C(=O)N(C)[C@H](C(=O)N(C)C)CC(=O)N(C)[C@@H](CC(C)C)C(=O)N[C@@H]([C@@H](C)CC)C(=O)N(C)CC(=O)N(C)[C@H]3C/C=C\CCN(C3=O)[C@@H](Cc3ccc(C(F)(F)F)cc3)C(=O)N(C)CC(=O)N[C@@H](CCc3ccc(C(F)(F)F)c(OC)c3)C(=O)N2C1 [PP2161]	–	AA (a compound having 20 or more is denoted as AA)	A (a compound having 10 or more and less than 20 is denoted as A)	Kd ([1]; SPR, Single Cycle Kinetics): 0.2 nM
C=CCN1CC(=O)N(C)[C@H]2C/C=C\CCN(C2=O)[C@@H](Cc2ccc(C)cc2)C(=O)N(C)CC(=O)N[C@@H](CCc2cc(F)c(C(F)(F)F)c(F)c2)C(=O)N2C[C@H](OCC)C[C@H]2C(=O)NC2(CC(C)(C)C2)C(=O)N(C)[C@@H](C2CCCC2)C(=O)N(C)[C@H](C(=O)N(C)C)CC(=O)N(C)[C@@H](CC(C)C)C(=O)N[C@@H]([C@@H](C)CC)C1=O [PP2050]	–	A (a compound having 10 or more and less than 20 is denoted as A)	A (a compound having 10 or more and less than 20 is denoted as A)	Kd ([1]; SPR, Single Cycle Kinetics): 0.19 nM
CC[C@H](C)[C@@H]1NC(=O)[C@H](CC(C)C)N(C)C(=O)C[C@@H](C(=O)N2CCOCC2)N(C)C(=O)[C@H](C2CCCC2)N(C)C(=O)C2(CCCC2)NC(=O)[C@@H]2CCCN2C(=O)[C@H](CCc2ccc(C(F)(F)F)c(Cl)c2)NC(=O)CN(C)C(=O)[C@H](Cc2ccc(C)cc2)N2CCCC[C@@H](C2=O)N(C)C(=O)CN(C)C1=O [PP0316]	0.054 nM	C (A compound having a KD ratio of 0.1 or more and less than 3 is denoted as C)	B (a compound having 3 or more and less than 10 is denoted as B)	–
CCCN1C(=O)[C@@H]2CCN2C(=O)[C@H](C)N(C)C(=O)[C@H](C2CCC2)NC(=O)[C@H](CC(C)C)N(C)C(=O)C[C@@H](C(=O)N2CCOCC2)N(C)C(=O)[C@H](C2CCCC2)N(C)C(=O)C2(CCCC2)NC(=O)[C@@H]2CCCN2C(=O)[C@H](CCc2ccc(C(F)(F)F)c(Cl)c2)NC(=O)CN(C)C(=O)[C@@H]1Cc1ccc(C(F)(F)F)cc1 [PP0271] ([NMeL][Gly(cBu)][NMeA][Aze][NPrPhe(4-CF3)][Sar][hPhe(3-Cl-4-CF3)]P[Ac5c][NMeGly(cPent)][NMeD]-Morpholide; lactam N-11)	0.22 nM	C (A compound having a KD ratio of 0.1 or more and less than 3 is denoted as C)	B (a compound having 3 or more and less than 10 is denoted as B)	–
CCC[C@H]1C(=O)N[C@@H]([C@@H](C)CC)C(=O)N(C)CC(=O)N(C)[C@H]2C/C=C\CCN(C2=O)[C@@H](Cc2ccc(C(F)(F)F)cc2)C(=O)N(C)CC(=O)N[C@@H](CCc2ccc(Cl)c(Cl)c2)C(=O)N2CCOC[C@H]2C(=O)NC2(CC(C)(C)C2)C(=O)N(C)[C@@H](C(CC)CC)C(=O)N(C)[C@H](C(=O)N(C)C)CC(=O)N1C [PP2920]	4 nM	–	–	NRAS/KRAS (ratio of KD value with respect to GDP-bound NRAS wild-type protein to KD value with respect to KRAS) ([2]; SPR KD ratio NRAS/KRAS, class symbols): AA (a compound having 20 or more is denoted as AA); HRAS/KRAS (ratio of KD value with respect to GDP-bound HRAS wild-type protein to KD value with respect to KRAS) ([3]; SPR KD ratio HRAS/KRAS, class symbols): A (a compound having 10 or more and less than 20 is denoted as A)
C=CCCN1C(=O)CN(C)C(=O)CN(C)C(=O)[C@H]([C@@H](C)CC)NC(=O)[C@H](CC(C)C)N(C)C(=O)C[C@@H](C(=O)N2CCOCC2)N(C)C(=O)[C@H](C2CCCC2)N(C)C(=O)C2(CCCC2)NC(=O)[C@@H]2CCCN2C(=O)[C@H](CCc2ccc(C(F)(F)F)c(Cl)c2)NC(=O)CN(C)C(=O)[C@@H]1Cc1ccc(C(F)(F)F)cc1 [PP0129] ([NMeL]I[Sar][Sar][X23][Sar][hPhe(3-Cl-4-CF3)]P[Ac5c][NMeGly(cPent)][NMeD]-Morpholide; lactam N-11)	0.2 nM	B (a compound having 3 or more and less than 10 is denoted as B)	C (A compound having a KD ratio of 0.1 or more and less than 3 is denoted as C)	–
